Results taken from the supplement of paper PMC10307832.

Columns and labels:
[1] = compound: CC1=NN=C(O1)C2=NN=C(C=C2)N3CCC(CC3)OC4=C(C=CC(=C4)F)Cl; assay: relative viability (nuclei count vs DMSO), 5 days (fraction); higher = more cells survive
Summary of the method: (§1)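 Viability here means nuclei in treated wells divided by nuclei in vehicle wells, reported as the median across plates. Only plates with control CV below 25% and at least one doubling passed. Lung cancer cell lines in 1536-well plates were exposed to five √10-spaced library-drug doses for 5 days and counted from 4× Hoechst images in MetaXpress.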

Tosedostat = compound: CC(C)C[C@@H](C(=O)N[C@H](C(=O)OC1CCCC1)c1ccccc1)[C@H](O)C(=O)NO [Tosedostat]; assay: as above
Summary of the method: as §1

Cell Line	relative viability ([1]; 0.253 µM)	relative viability ([1]; 0.8 µM)	relative viability ([1]; 2.53 µM)	relative viability ([1]; 8 µM)	relative viability (Tosedostat; 0.02 µM)	relative viability (Tosedostat; 0.06325 µM)	relative viability (Tosedostat; 0.2 µM)	relative viability (Tosedostat; 0.6325 µM)	relative viability (Tosedostat; 2 µM)
201T	0.481	0.523	0.553	0.503	1	1	1.02	1.06	1.01
A549	0.69	0.611	0.575	0.541	1.05	0.945	0.922	0.929	0.815
A-427	0.904	–	0.956	0.789	1.04	0.955	0.992	0.941	0.908
ABC-1	0.374	0.421	0.473	0.472	1.24	0.869	0.911	0.928	0.765
BEN	0.895	0.959	0.974	0.821	1.01	1.03	1.09	1.3	1.2
CAL-12T	0.935	0.859	0.821	0.742	1.16	0.948	1.03	0.892	0.784
COR-L23	0.826	0.891	0.797	0.655	1.13	1	0.965	1.01	1.06
COR-L 105	0.902	0.956	0.989	1.07	1.03	0.906	0.81	0.784	0.697
Calu-6	0.673	0.682	0.694	0.61	1.08	0.925	0.928	0.831	0.733
ChaGo-K-1	0.736	0.681	0.687	0.671	1.07	0.975	0.969	1.02	0.771
EBC-1	0.663	0.735	0.81	0.606	0.994	0.934	0.946	0.785	0.683
EKVX	0.475	0.405	0.432	0.479	0.973	0.972	0.944	0.859	0.911
EMC-BAC-2	0.98	0.872	0.891	0.615	1.09	1.16	0.952	0.919	0.811
EPLC-272H	0.987	0.716	0.887	0.828	1.06	0.984	0.763	0.593	0.428
H3255	0.662	0.688	0.635	0.727	0.994	0.869	0.94	0.852	0.886
HARA	0.484	0.387	0.538	0.355	1.15	0.977	0.922	0.887	0.774
HCC-15	0.463	0.449	0.456	0.464	1.05	0.89	0.996	0.901	0.848
HCC-44	0.492	0.542	0.509	0.517	1.09	1.01	0.982	0.905	0.628
HCC-78	0.659	0.615	0.578	0.551	0.938	1.04	1	1.04	0.958
HCC-366	0.484	0.469	0.508	0.482	1.02	1.01	1.03	0.979	1.01
HCC-827	0.47	0.297	0.455	0.443	1.03	1.06	1.1	0.957	1.01
HOP-62	0.77	0.529	0.707	0.587	1.12	0.977	0.932	0.945	0.9
IA-LM	0.169	0.142	0.171	0.155	1.07	0.963	0.918	0.858	0.769
LC-2-ad	0.407	0.431	0.44	0.409	1.13	1.02	0.963	0.871	0.818
LCLC-97TM1	0.795	–	0.564	0.548	1.12	0.973	0.876	0.83	0.621

Cell Line	relative viability ([1]; 0.253 µM)	relative viability ([1]; 0.8 µM)	relative viability ([1]; 2.53 µM)	relative viability ([1]; 8 µM)	relative viability (Tosedostat; 0.02 µM)	relative viability (Tosedostat; 0.06325 µM)	relative viability (Tosedostat; 0.2 µM)	relative viability (Tosedostat; 0.6325 µM)	relative viability (Tosedostat; 2 µM)
LCLC-103H	0.604	0.71	0.705	0.632	1.06	0.95	1	1.11	1.07
LK-2	0.965	0.823	1.01	1.02	1.13	1.11	0.926	0.954	1.13
LOU-NH91	–	0.866	0.908	0.957	1.04	1.01	0.937	0.919	0.86
LU99A	1.05	0.783	0.721	0.758	1.04	1.11	0.99	0.857	0.813
LXF-289	0.712	0.616	0.737	0.653	1.08	0.987	0.992	0.993	1.05
NCI-H23	0.919	0.532	0.835	0.815	1.14	0.907	0.899	0.744	0.541
NCI-H322M	0.929	0.881	1.02	0.819	0.898	0.964	0.877	0.762	0.834
NCI-H358	0.628	0.563	0.589	0.49	1.11	0.866	0.782	0.452	0.425
NCI-H441	0.672	0.388	0.595	0.519	1.12	0.92	0.749	0.69	0.731
NCI-H460	0.273	0.306	0.282	0.284	1.02	0.994	0.99	0.974	0.989
NCI-H520	0.91	0.813	1.16	0.968	1.02	0.977	0.937	1.15	1.14
NCI-H522	0.964	0.933	0.957	0.955	0.908	1.01	0.897	1.05	1.01
NCI-H596	0.982	0.806	1.06	0.813	1.03	1.08	1.12	1.01	0.967
NCI-H647	0.65	0.642	0.66	0.413	1.02	1.01	1.02	0.977	0.883
NCI-H650	0.927	0.72	0.865	0.71	1.07	0.988	0.731	0.787	0.789
NCI-H661	0.859	0.816	0.731	0.71	1.01	0.991	0.948	0.926	0.934
NCI-H727	0.817	0.728	0.981	0.785	0.914	0.899	0.696	0.819	0.95
NCI-H838	0.885	0.752	0.886	0.78	0.965	0.957	0.951	1.01	1.11
NCI-H1299	0.961	0.9	0.892	0.852	1.09	0.995	0.985	0.968	0.939
NCI-H1355	0.685	0.592	0.915	0.82	0.961	0.936	1.04	0.838	0.905
NCI-H1395	0.823	0.762	0.813	0.882	0.894	0.938	0.972	0.889	0.78
NCI-H1437	0.741	0.642	0.707	0.632	1	0.987	1.05	0.97	0.889
NCI-H1563	0.986	0.954	0.995	0.993	1.03	1.07	1.05	1.13	1.08
NCI-H1623	0.897	0.734	0.918	0.926	1.06	0.895	0.907	0.798	0.965
NCI-H1648	0.435	0.462	0.56	0.496	1.01	0.923	0.881	0.935	0.578

Cell Line	relative viability ([1]; 0.253 µM)	relative viability ([1]; 0.8 µM)	relative viability ([1]; 2.53 µM)	relative viability ([1]; 8 µM)	relative viability (Tosedostat; 0.02 µM)	relative viability (Tosedostat; 0.06325 µM)	relative viability (Tosedostat; 0.2 µM)	relative viability (Tosedostat; 0.6325 µM)	relative viability (Tosedostat; 2 µM)
NCI-H1650	–	0.756	0.749	0.722	0.895	0.85	0.94	0.911	0.98
NCI-H1651	0.819	0.795	0.784	0.682	1.06	0.984	0.973	0.921	0.899
NCI-H1666	0.707	0.844	0.835	0.782	1	0.933	1.02	1.08	0.999
NCI-H1703	0.786	0.873	0.933	0.829	0.995	0.789	0.763	0.572	0.726
NCI-H1734	0.954	0.729	0.966	0.859	1.1	0.903	0.959	0.866	0.822
NCI-H1755	0.661	0.746	0.759	0.731	1	0.999	1.05	1	0.971
NCI-H1792	0.748	0.741	0.833	0.846	1.01	1.11	0.963	0.828	1.07
NCI-H1793	0.877	0.776	1.02	0.755	0.815	0.88	0.92	0.913	0.79
NCI-H1915	0.607	0.341	0.497	0.407	1.15	0.949	0.998	0.988	0.891
NCI-H1944	0.429	0.487	0.515	0.466	1.01	0.921	0.928	0.889	0.853
NCI-H1975	–	0.676	0.918	0.849	0.973	1	0.884	0.788	0.733
NCI-H1993	0.772	0.864	0.954	0.833	1	0.958	0.847	0.631	0.703
NCI-H2009	0.613	0.552	0.61	0.539	1.16	0.94	0.988	0.926	0.866
NCI-H2023	0.513	0.451	0.579	0.431	1.05	0.916	0.937	0.713	0.942
NCI-H2085	0.901	0.736	0.908	0.795	0.918	1.02	0.983	1.02	0.99
NCI-H2087	0.771	0.569	0.659	0.621	1.21	1.06	1.11	0.819	0.942
NCI-H2126	0.832	0.869	0.928	0.864	0.976	1.01	1.01	0.903	0.865
NCI-H2170	0.481	0.52	0.607	0.444	0.997	0.963	1.02	0.984	0.89
NCI-H2228	0.904	0.921	0.979	0.834	1.22	1.1	0.881	0.837	0.686
NCI-H2342	0.678	0.675	0.604	0.525	0.954	0.998	0.986	0.944	0.94
NCI-H2347	0.883	0.771	0.893	0.783	1.01	1.05	1.05	0.927	0.833
NCI-H2405	0.577	0.495	0.553	0.525	1.16	1	0.991	0.95	0.92
NCI-H3122	0.47	0.444	0.478	0.432	1.06	1.01	1.03	1.02	1.02
PC-3 [JPC-3]	0.85	0.805	0.896	0.926	1.08	1.13	1.04	0.933	0.641
PC-14	0.896	0.778	0.817	0.846	1.14	0.951	0.962	0.928	0.806
